Measurements reported in patent US6720136B2, “Solid phase quenching systems” (V. I Technologies, Inc., priority 1998, dated 2004).

Assay: Quenching of ethyleneimine dimer in whole CPD human blood, EID concentration in plasma and RBC fractions by HPLC
Protocol: 50 μl of 120 mM ethyleneimine dimer (EID, PEN102) in 0.25 M NaH2PO4 was added to 0.9 ml of whole human CPD blood (final concentration of EID was 6 mM, 6 μmole total), and incubated at 23° C. for 4 hours. At the end of the 4-hour incubation period, 68 mg (50 μmole-equivalents of phosphothiomonoester groups) of ArgoPore-Thiophosphate support (prepared as described in Example 2) was added. In the parallel experiment, 50 μl of 1 M Na2S2O3 (final concentration 50 mM) was added to same amount of EID treated blood. Both samples were allowed to incubate for 2 hours at 23° C. The red blood cell (RBC) and plasma fraction of the blood were separated by centrifugation (10,000 rpm, 5 min), and the RBCs were opened by adding 9 volumes of water. The concentration of EID was determined in the RBC fraction and in the plasma fraction of the blood by HPLC (FIG. 6).

Compound: O=S(O)(O)=S [sodium thiosulfate]
- concentration of ethyleneimine dimer in plasma fraction after quenching (6 mM EID for 4 hours at 23° C., then quencher (50 μmole-equivalents support or 50 mM Na2S2O3) for 2 hours at 23° C., plasma): 6.8 µg/mL
- concentration of ethyleneimine dimer in red blood cell fraction after quenching (6 mM EID for 4 hours at 23° C., then quencher (50 μmole-equivalents support or 50 mM Na2S2O3) for 2 hours at 23° C., red blood cells): 2.2 µg/mL
- quenching of ethyleneimine dimer in blood (in words) (6 mM EID, quencher 2 hours at 23° C.): capable of quenching ethyleneimine dimer
